Measurements reported in patent publication US20150175681A1 (priority 2010, published 2015).

How the values were obtained:
Format in all cases: in vivo
[1] = system: C. difficile (ATCC 43596 strain); settings: Example 5B
[2] = system: C. difficile (ATCC 43596, strain 545)
[3] = system: C. difficile (ATCC 43596); settings: Example 5C
[4] = Example 5E, vancomycin 20 mg/kg
[5] = Example 5E, vancomycin 20 mg/kg BID × 5 days

SMILES: CN[C@H](CC(C)C)C(=O)N[C@H]1C(=O)N[C@@H](CC(N)=O)C(=O)N[C@H]2C(=O)N[C@H]3C(=O)N[C@H](C(=O)N[C@H](C(=O)O)c4cc(O)cc(O)c4-c4cc3ccc4O)[C@H](O)c3ccc(c(Cl)c3)Oc3cc2cc(c3O[C@@H]2O[C@H](CO)[C@@H](O)[C@H](O)[C@H]2O[C@H]2C[C@](C)(N)[C@H](O)[C@H](C)O2)Oc2ccc(cc2Cl)[C@H]1O [Vancomycin]
- % mortality ([1]; 37 days, vancomycin 20 mg/kg PO BID × 5 days, goat polyclonal Abs 1 mL/hamster, PA-38 + PA-41 50, 50 mg/kg, PA-39 + PA-41 50, 40 mg/kg IP Q2d × 4): 88%
- number of hamster deaths, day of study 15 ([1]; doses as Table 2, 8 animals): 1
- number of hamster deaths, day of study 18 ([1]; doses as Table 2, 8 animals): 5
- number of hamster deaths, day of study 19 ([1]; doses as Table 2, 8 animals): 1
- mean body weights ([1]; first week after infection): declined significantly during the first week after infection
- hamsters found dead between Days 15 and 19 ([1]; vancomycin 20 mg/kg BID Days 1-5): seven of eight
- mean body weights over the study ([2]; Example 5E, to day 39): decreased during the first week post-infection and then rebounded
- Day 40 Survival [2, 4]: 0%
- Median Survival [2, 4]: 20 days
- % mortality [2, 5]: 100%
- number of hamster deaths, day of study 11 to 14 [2, 5]: 1
- number of hamster deaths, day of study 18 to 20 [2, 5]: 5
- number of hamster deaths, day of study 22 [2, 5]: 2
- cecal C. difficile, mean CFU ([2]; in vivo): 6.01±0.93 log10
- % mortality ([3]; 40 days, vancomycin 20 mg/kg PO BID × 5 days, mAbs 50 mg/kg (combination 50, 50) IP Q2d × 4, 7 hamsters): 100%
- number of hamster deaths, day of study 12 ([3]; doses as Table 4): 1
- number of hamster deaths, day of study 14 ([3]; doses as Table 4): 2
- number of hamster deaths, day of study 15 ([3]; doses as Table 4): 1
- number of hamster deaths, day of study 18 ([3]; doses as Table 4): 1
- number of hamster deaths, day of study 19 ([3]; doses as Table 4): 2
